Here are results for 26 compounds from ChEMBL document CHEMBL1149532, “Identification of 2-(4,5,6,7-tetrahydro-1H-pyrrolo[3,2-c]pyridin-3-yl)-ethylamine derivatives as novel GnRH receptor antagonists” (Bioorg Med Chem Lett, 2007).

SMILES strings stand for the structures. Active and inactive are the calls of the source. No cut-off for these calls is given here.

Data set [1] concerns the target T1, Gonadotropin-releasing hormone receptor (Homo sapiens, UniProt P30968).
T1 sequence (P30968 whole entry): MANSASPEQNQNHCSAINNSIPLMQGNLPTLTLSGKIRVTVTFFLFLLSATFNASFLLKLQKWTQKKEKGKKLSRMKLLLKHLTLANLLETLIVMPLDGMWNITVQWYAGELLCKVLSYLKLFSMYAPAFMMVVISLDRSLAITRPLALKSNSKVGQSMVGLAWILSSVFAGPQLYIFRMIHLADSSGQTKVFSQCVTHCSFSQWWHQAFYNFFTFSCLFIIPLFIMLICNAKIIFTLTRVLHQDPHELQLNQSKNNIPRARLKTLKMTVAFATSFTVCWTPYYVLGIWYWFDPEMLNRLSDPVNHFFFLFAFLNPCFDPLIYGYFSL
Description: Inhibition of human GnRHR expressed in RBL cells assessed as inhibition of GnRH-stimulated [3H]inositol phosphate hydrolysis. The data set is classed as functional, cell-based.

Data set [2] deals with T2, Gonadotropin-releasing hormone receptor (Rattus norvegicus, UniProt P30969).
T2 sequence (P30969 whole entry): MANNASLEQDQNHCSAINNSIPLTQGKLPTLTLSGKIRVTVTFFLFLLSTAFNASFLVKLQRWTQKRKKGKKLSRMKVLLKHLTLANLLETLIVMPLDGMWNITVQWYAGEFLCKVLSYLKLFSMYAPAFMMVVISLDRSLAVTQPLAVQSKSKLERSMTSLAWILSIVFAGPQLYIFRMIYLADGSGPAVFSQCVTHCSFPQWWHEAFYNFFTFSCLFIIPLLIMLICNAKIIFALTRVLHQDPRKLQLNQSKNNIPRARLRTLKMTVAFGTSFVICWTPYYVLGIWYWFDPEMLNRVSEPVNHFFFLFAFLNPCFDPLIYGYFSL
The data set is described as follows: Displacement of [125I]-Tyr5, DLeu6, NMeLeu7, Pro-N-Et-GnRH from cloned rat GnRHR.

In data set [3] the target is T2, Gonadotropin-releasing hormone receptor. Description: Inhibition of GnRHR in rat pituitary cells assessed as inhibition of GnRH-stimulated LH release. Format: functional, cell-based, Pituitary gland cell.
Data set [4] in a line: AUC in rat at 1.5 mg/kg, ip after 24 hrs. On the set-up: time < 24 hr, dose 1.5 mg/kg, route intraperitoneal. Conditions: plasma. Format: ADME, organism-based.
A short description of data set [5]: AUC in rat at 15 mg/kg, ip after 24 hrs. The data set is classed as ADME, organism-based. On the set-up: time < 24 hr, dose 15 mg/kg, route intraperitoneal. The conditions noted are these: plasma.
Data set [6] concerns the target T3, Gonadotropin-releasing hormone receptor (Rattus norvegicus) (UniProt P30969).
T3 sequence (whole entry): T2 sequence (P30969 whole entry)
Description: Decrease in LH concentration in rat plasma at 15 mg/kg, ip after 24 hrs by radioimmunoassay. The data set is classed as functional, organism-based. Set-up: dose 15 mg/kg.

Data set [7] deals with T3, Gonadotropin-releasing hormone receptor (Rattus norvegicus). Description: Decrease in LH concentration in rat plasma at 1.5 mg/kg, ip after 24 hrs by radioimmunoassay. The data set is classed as functional, organism-based. Set-up: dose 1.5 mg/kg.
Data set [8] in a line: AUC in rat at 4.5 mg/kg, ip after 24 hrs. Conditions: plasma. Set-up: time < 24 hr, dose 4.5 mg/kg, route intraperitoneal. The data set is classed as ADME, organism-based.

In general, IC50 refers to the concentration needed to halve the response being measured. In general, Ki refers to a measure of affinity in units of concentration, obtained from inhibition or displacement. Read a low Ki as a stronger hold on the target. As a reminder, the AUC is the area under the concentration-time curve, a measure of exposure.

`Cc1cc(C)cc(-c2[nH]c3c(c2[C@H](C)CNCCc2ccc4nn[nH]c4c2)CN(C(=O)Cc2c(F)cccc2C(F)(F)F)CC3)c1`: the results for the IC50 in data set [1] and in data set [3] were 26 nM and 1.2 nM, respectively. In data set [2], this compound displayed a Ki of 0.5 nM.

`COc1ccccc1CC(=O)N1CCc2[nH]c(-c3cc(C)cc(C)c3)c([C@H](C)CNCCc3ccncc3)c2C1`: the IC50 in data set [1] stood at 462 nM. This compound also gave an inhibitory constant (Ki) in data set [2] of 5.6 nM.

Regarding `CC(=O)N1CCc2[nH]c(-c3cc(C)cc(C)c3)c([C@H](C)CNCCc3ccncc3)c2C1`, the IC50 in data set [1] is 8090 nM. Further, the Ki in data set [2] was 120 nM.

For the compound `Cc1cc(C)cc(-c2[nH]c3c(c2[C@H](C)CNCCc2ccc(-c4nnn[nH]4)cc2)CN(C(=O)Cc2c(F)cccc2C(F)(F)F)CC3)c1`, the IC50 in data set [1] stood at 1.5 nM; in data set [3], 0.6 nM. The AUC at 24 h came out at 1290 ng·h/mL in data set [4], 6500 ng·h/mL in data set [5] and 2470 ng·h/mL in data set [8]. Affinity in data set [2] was put at a Ki of 0.2 nM. The outcome in data set [6] was Active. Besides, the Activity entry in data set [7] was “Dose-dependent effect”.

For `Cc1cc(C)cc(-c2[nH]c3c(c2[C@H](C)CNCCc2ccncc2)CN(C(=O)C2CCCC2)CC3)c1`, the figures for the IC50 in data set [1] and in data set [3] were 3480 nM and 250 nM, respectively. In addition, the Ki in data set [2] amounted to 18 nM.

For `Cc1cc(C)cc(-c2[nH]c3c(c2[C@H](C)CNCCc2ccncc2)CN(C(=O)Cc2ccccc2F)CC3)c1`, the values for the IC50 in data set [1] and in data set [3] were 271 nM and 280 nM, respectively. The Ki in data set [2] came out at 1.8 nM.

On to `Cc1cc(C)cc(-c2[nH]c3c(c2[C@H](C)CNCCc2ccc4nccnc4c2)CN(C(=O)Cc2c(F)cccc2C(F)(F)F)CC3)c1`, for which the figures for the IC50 in data set [1] and in data set [3] were 60 nM and 68 nM, respectively. The compound also yielded a Ki in data set [2] of 0.3 nM.

For the compound `Cc1cc(C)cc(-c2[nH]c3c(c2[C@H](C)CN)CN(C(=O)Cc2c(F)cccc2C(F)(F)F)CC3)c1`, the IC50 in data set [1] turned out to be 4180 nM. The compound also yielded a Ki in data set [2] of 470 nM.

`Cc1cc(C)cc(-c2[nH]c3c(c2[C@H](C)CNCCc2ccncc2)CN(C(=O)Cc2ccccc2C(F)(F)F)CC3)c1`: the IC50 in data set [1] was 86 nM; in data set [3], 47 nM. Also, in data set [2], the affinity, expressed as Ki, was 1.5 nM.

On to `Cc1cc(C)cc(-c2[nH]c3c(c2[C@H](C)CNCCc2ccncc2)CN(C(=O)Cc2ccccc2Cl)CC3)c1`, for which the IC50 in data set [1] was 267 nM. The compound also showed a Ki in data set [2] of 2.6 nM.

On to `Cc1cc(C)cc(-c2[nH]c3c(c2[C@H](C)CNCCc2ccncc2)CN(C(=O)Cc2c(F)cccc2C(F)(F)F)CC3)c1`, for which the IC50 came out at 62 nM in data set [1] and 57 nM in data set [3]. Further, the affinity in data set [2], expressed as Ki, was 0.5 nM.

Take `Cc1cc(C)cc(-c2[nH]c3c(c2[C@H](C)CNCCc2ccc(-c4nnn[nH]4)nc2)CN(C(=O)Cc2c(F)cccc2C(F)(F)F)CC3)c1`: the IC50 in data set [1] was 7 nM; in data set [3], 44 nM. This compound yielded a Ki in data set [2] of 0.6 nM.

In the case of `Cc1cc(C)cc(-c2[nH]c3c(c2[C@H](C)CNCCc2ccc4nc(C)[nH]c4c2)CN(C(=O)Cc2c(F)cccc2C(F)(F)F)CC3)c1`, the IC50 in data set [1] is 87 nM. Also, the affinity in data set [2], expressed as Ki, was 1 nM.

As to `Cc1cc(C)cc(-c2[nH]c3c(c2[C@H](C)CNCCc2ccncc2)CN(C(=O)C24CC5CC(CC(C5)C2)C4)CC3)c1`, the IC50 in data set [1] is 546 nM; in data set [3], 63 nM. For the same compound, the affinity in data set [2], expressed as Ki, was 1.5 nM.

As for `Cc1cc(C)cc(-c2[nH]c3c(c2[C@H](C)CNCCc2ccncc2)CN(C(=O)Cc2ccccc2)CC3)c1`, the IC50 turned out to be 1110 nM in data set [1] and 110 nM in data set [3]. In data set [2], the Ki worked out at 4.5 nM.

Take `Cc1cc(C)cc(-c2[nH]c3c(c2[C@H](C)CNCCc2ccncc2)CN(C(=O)C2C(C)(C)C2(C)C)CC3)c1`: the values for the IC50 in data set [1] and in data set [3] were 475 nM and 96 nM, respectively. The compound further displayed a Ki in data set [2] of 1.3 nM.

As to `Cc1cc(C)cc(-c2[nH]c3c(c2[C@H](C)CNCCc2ccncc2)CN(C(=O)c2ccccc2)CC3)c1`, the IC50 in data set [1] is more than 10000 nM. In data set [2], this compound returned a Ki of 660 nM.

Consider `Cc1cc(C)cc(-c2[nH]c3c(c2[C@H](C)CNCCc2cnc4nn[nH]c4c2)CN(C(=O)Cc2c(F)cccc2C(F)(F)F)CC3)c1`, for which the values for the IC50 in data set [1] and in data set [3] were 9 nM and 6.4 nM, respectively. Moreover, affinity in data set [2] was put at a Ki of 0.6 nM.

Consider `Cc1cc(C)cc(-c2[nH]c3c(c2[C@H](C)CNCCc2ccc(=O)n(C)c2)CN(C(=O)Cc2c(F)cccc2C(F)(F)F)CC3)c1`, for which the IC50 in data set [1] came to 32 nM. Moreover, the Ki in data set [2] came to 0.4 nM.

Consider `Cc1cc(C)cc(-c2[nH]c3c(c2[C@H](C)CNCCC2CCOCC2)CN(C(=O)Cc2c(F)cccc2C(F)(F)F)CC3)c1`, for which the IC50 in data set [1] is 205 nM; in data set [3], 480 nM. The compound also came in with a Ki in data set [2] of 4.7 nM.

Consider `Cc1cc(C)cc(-c2[nH]c3c(c2[C@H](C)CNCCOc2ccc(-c4nnn[nH]4)cc2)CN(C(=O)Cc2c(F)cccc2C(F)(F)F)CC3)c1`, for which the IC50 in data set [1] worked out at 63 nM. Further, affinity in data set [2] was put at a Ki of 6.2 nM.

In the case of `Cc1cc(C)cc(-c2[nH]c3c(c2[C@H](C)CNCCc2ccncc2)CNCC3)c1`, the half-inhibitory concentration (IC50) in data set [1] is more than 10000 nM. Further, in data set [2], the Ki was more than 10000 nM.

As for `Cc1cc(C)cc(-c2[nH]c3c(c2[C@H](C)CNCc2ccc(-c4nnn[nH]4)cc2)CN(C(=O)Cc2c(F)cccc2C(F)(F)F)CC3)c1`, the IC50 in data set [1] was 1600 nM. In addition, the affinity in data set [2], expressed as Ki, was 1600 nM.

Regarding `Cc1cc(C)cc(-c2[nH]c3c(c2[C@H](C)CNCCc2ccc(C(=O)O)cc2)CN(C(=O)Cc2c(F)cccc2C(F)(F)F)CC3)c1`, the IC50 in data set [1] came to 22 nM. Moreover, in data set [2], the inhibition constant Ki was determined as 2 nM.

Regarding `Cc1cc(C)cc(-c2[nH]c3c(c2[C@H](C)CNCCc2cc4[nH]nnc4cc2F)CN(C(=O)Cc2c(F)cccc2C(F)(F)F)CC3)c1`, the IC50 in data set [1] is 16 nM; in data set [3], 28 nM. Also, in data set [2], the Ki was determined as 0.7 nM.

On to `CCn1c(=O)[nH]c2cc(CCNC[C@@H](C)c3c(-c4cc(C)cc(C)c4)[nH]c4c3CN(C(=O)Cc3c(F)cccc3C(F)(F)F)CC4)ccc2c1=O`, for which, in data set [1], the IC50 is 91 nM. The same compound returned a Ki in data set [2] of 1.8 nM.
